Reference: patent US6946462B2, “N-monoacylated derivatives of o-phenylenediamines, their analogs and their use as pharmaceutical agents” (Hoffmann-La Roche Inc., priority 2001, dated 2005)

Assays:
[1] = molecular target: T1, rec. HDAC-1 purified from HEK 293 cells (Homo sapiens, UniProt Q13547); experiment: Assay for inhibition of histone deacetylase (HDAC), quenched peptide / Lys C fluorescence; type: biochemical; details: 10 concentrations starting at 30 uM, 90 min incubation
T1 construct: made in house; host or cells: HEK 293 cells
T1 sequence (Q13547 whole entry): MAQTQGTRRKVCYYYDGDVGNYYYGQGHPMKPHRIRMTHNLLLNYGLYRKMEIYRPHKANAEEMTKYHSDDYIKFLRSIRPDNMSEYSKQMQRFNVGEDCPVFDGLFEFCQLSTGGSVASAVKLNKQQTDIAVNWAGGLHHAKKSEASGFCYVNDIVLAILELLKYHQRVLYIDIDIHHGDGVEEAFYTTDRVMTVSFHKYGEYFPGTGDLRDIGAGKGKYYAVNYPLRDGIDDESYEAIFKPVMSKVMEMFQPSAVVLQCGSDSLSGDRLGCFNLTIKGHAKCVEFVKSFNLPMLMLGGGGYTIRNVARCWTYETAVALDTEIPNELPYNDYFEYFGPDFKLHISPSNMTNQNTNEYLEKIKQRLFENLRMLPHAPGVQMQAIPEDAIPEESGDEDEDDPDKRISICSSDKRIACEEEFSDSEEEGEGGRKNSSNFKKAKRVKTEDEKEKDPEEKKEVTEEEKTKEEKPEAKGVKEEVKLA
Excerpt: A) Assay for Inhibition of Histone Deacetylase (HDAC)
HDAC deacetylates lysines in histone H4. A 17 aa peptide with TAMRA at the C-terminus and QSY7 at the N-terminus was used as a substrate. Following deacetylation by HDAC the enzyme Lys C is able to cleave the peptide resulting in disappearence of the quench effect and a high signal. Inhibition of HDAC by compounds results in low signals because Lys C has no substrate for cleaving and the quench effect persists.
For dose response curves 10 concentrations were diluted starting at 30 uM. 10 ul compound dilution were put into each well of a 384 well plate. 10 ul HDAC (rec. HDAC-1 purified from HEK 293 cells; activity was assessed for each preparation) were added. 10 ul peptide was added (1 uM final concentration). After 90 min incubation at room temperature the reaction was stopped by addition of 20 ul test buffer including 3 ug/ml Lys C and 0.075% SDS. After overnight incubation the fluorescent signal of TAMRA was measured at absorption 544 nm, emission 590 nm by Victor 2.

[2] = tested on: E-cadherin expression in A549; experiment: E-cadherin upregulation assay (ELISA, with WST-1 proliferation in the same well); type: cell-based; details: A549 human lung carcinoma cells; % proliferation subtracted from % E-cadherin expression; 10 concentrations starting at 40 uM; read-out: E-cadherin upregulation EC50 [μM] (Assay B)
Excerpt: B) E-cadherin Upregulation Assay
E-cadherin as an adhesion molecule is important for connection of the cells and integrity of tissues. […] Upregulation of the protein in cells where there is insufficient E-cadherin is regarded as a marker for the differentiation of the tumor cell. This corresponds to leaving the undifferentiated tumor cell status.
The compounds described are able to upregulate expression of E-cadherin in A549. In parallel, the proliferation of the cells is examined. The activity of an E-cadherin upregulator is defined as an increase in E-cadherin expression determined by an ELISA. Cell proliferation is also determined by WST-1 in the same well.
The assay was performed in 384-well format. […] 5000 cells per well were seeded in culture medium with 10% FCS at day 1. At day 2 compounds in different concentrations starting at 40 uM were added at a final concentration of DMSO of 0.5%. At day 4, WST-1 reagent was added and absorption was measured after 45 min (450 nm/690 nm).
The medium was aspirated, 100 ul fixation solution was added per well and discarded after 30 min, followed by addition of 100 ul blocking solution. […] Absorption was measured at 405 nm.
% proliferation of cells is substracted from % E-cadherin expression resulting in Delta. The dose response curve resulting from 10 concentrations was calculated using XLfit. […]

[3] = tested on: SW620 colon carcinoma cells; experiment: SW620 colon carcinoma xenograft in nude mice, tumor volume; type: in vivo, Balb/C nu/nu-mice; details: oral, once daily, day 8 to day 27
Method: Female Balb/C nu/nu-mice(n=12 per group), aged 8-10 weeks, were subcutaneously injected with […] SW620 colon carcinoma cells. On day 6, animals with tumor volumes of about 200 mm^3 were randomly assigned to treatment groups. The test compound was administered as a fine suspension in 0.5% methylcellulose with an application volume of 10 ml/kg based on actual body weights. Oral treatment started on day 8 and continued through to day 27 on a once daily, 7 times per week treatment schedule.
The volume of the tumor was determined from the following equation:
Volume of a tumor=½×(major axis)×(minor axis)2

Nc1ccccc1NC(=O)c1cscn1 [Compound 38, Thiazole-4-carboxylic acid (2-amino-phenyl)-amide]
IC50 [1]: 11.1 µM | EC50 [2]: 5.9 µM | Tumor volume (mm^3) ([3]; end of the study, female Balb/C nu/nu mice with s.c. SW620 tumors): 1029.0 mm^3 | % inhibition vs. control ([3]; tumor volume at the end of the study, SW620 xenograft): 53%
